{"source": "patent US20240065983A1", "about": "“COMPOSITION AND METHOD FOR TREATING COVID-19” (University of South Florida, priority 2021, published 2024)", "key": {"[1]": {"test_system": "SARS CoV2 variants (WA, UK B.1.1.7, SA B.1.351)", "type": "cell-based, SARS-CoV-2"}, "SARS-CoV-2 delta": {"test_system": "SARS-CoV-2 delta", "type": "cell-based"}}, "data": [{"smiles": "CC(O)c1ccc(CCOc2ccc(CC3SC(=O)NC3=O)cc2)nc1", "note": "(stereo not drawn) [LG, leriglitazone]", "values": [{"measurement": "expression of CoV2-N gene and S genes", "setting": "[1]", "value": "significantly inhibited"}, {"measurement": "expression of inflammatory genes TNFα, IL-6, IL1β", "setting": "[1]; LG 20 uM, all CoV2 strains", "value": "down-regulated at the transcript level"}, {"measurement": "expression of N and inflammatory gene transcripts", "setting": "SARS-CoV-2 delta", "value": "decreased expression of N and several inflammatory gene transcripts"}]}]}
